Consider five compounds from paper PMC2625337, “Flexible modulation of agonist efficacy at the human A3 adenosine receptor by the imidazoquinoline allosteric enhancer LUF6000” (BMC Pharmacology, 2008).

Type in all cases: biochemical
Test [1] has as its target T1, human A1 adenosine receptor (A1 AR) (Homo sapiens, UniProt P30542).
T1 construct: gene ADORA1; full-length receptor stably expressed in CHO cells, membrane preparation
T1 sequence (P30542 1-326): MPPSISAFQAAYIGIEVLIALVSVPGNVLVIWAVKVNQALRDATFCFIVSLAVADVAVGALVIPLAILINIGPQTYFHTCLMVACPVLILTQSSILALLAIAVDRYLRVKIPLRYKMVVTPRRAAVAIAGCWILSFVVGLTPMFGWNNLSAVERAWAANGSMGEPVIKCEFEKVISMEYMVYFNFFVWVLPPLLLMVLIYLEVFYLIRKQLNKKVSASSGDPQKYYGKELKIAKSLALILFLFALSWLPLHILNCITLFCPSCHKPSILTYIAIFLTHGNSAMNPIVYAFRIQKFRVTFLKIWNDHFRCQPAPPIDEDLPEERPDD
The following applies: high-efficacy agonist.

The target in test [2] is T2, human A3 adenosine receptor (A3 AR) (Homo sapiens, UniProt P0DMS8).
T2 construct: gene ADORA3; full-length receptor stably expressed in CHO cells, membrane preparation
T2 sequence (P0DMS8 1-318): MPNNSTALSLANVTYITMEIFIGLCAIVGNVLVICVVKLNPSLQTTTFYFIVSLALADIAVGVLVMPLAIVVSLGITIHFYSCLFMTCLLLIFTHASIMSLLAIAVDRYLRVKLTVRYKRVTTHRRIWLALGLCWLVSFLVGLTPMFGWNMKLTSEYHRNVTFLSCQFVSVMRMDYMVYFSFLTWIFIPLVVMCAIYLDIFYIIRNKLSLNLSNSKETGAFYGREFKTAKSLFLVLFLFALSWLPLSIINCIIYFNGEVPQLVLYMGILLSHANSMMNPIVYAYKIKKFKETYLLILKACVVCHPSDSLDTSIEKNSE
In words: […]GTPgammaS binding, CHO membranes. For orientation: GTPγS is a poorly hydrolysed GTP analogue; its binding reports G protein activation.

Test [3] deals with T2, human A3 adenosine receptor (A3 AR). In words: […]GTPgammaS binding, CHO membranes. The conditions noted are these: alone, no LUF6000; antagonist.
The target is the same in test [4]. In words: […]GTPgammaS binding, CHO membranes. The conditions noted are these: agonist alone, no LUF6000.

Some results are limits rather than exact numbers.

As for `OC[C@H]1O[C@@H](n2cnc3c(NC4CCCC4)nc(Cl)nc32)[C@H](O)[C@@H]1O` [CCPA, 2-chloro-N^6-cyclopentyladenosine], in test [1], the “[35S]GTPgammaS binding, CHO membranes” value is “high-efficacy agonists CPA and CCPA or a low efficacy agonist MRS541 to activate the A1”.

Take `Clc1ccc(Nc2nc3ccccc3c3nc(C4CCCCC4)[nH]c23)cc1Cl` [LUF6000, N-(3,4-dichloro-phenyl)-2-cyclohexyl-1H-imidazo [4,5-c]quinolin-4-amine]: the “[35S]GTPgammaS binding, CHO membranes” value in test [2] (allosteric enhancer, tested at 0.1-10 µM with agonists) was “LUF6000 showed a flexible modulatory effect of efficacy”.

For the compound `OC[C@H]1O[C@@H](n2cnc3c(NCc4cccc(I)c4)nc(Cl)nc32)[C@H](O)[C@@H]1O` [MRS542, 2-chloro-N^6-(3-iodobenzyl)adenosine], the “Emax (%)” value in test [3] turned out to be 5.6 ± 2.5%.

In the case of `CNC(=O)[C@H]1O[C@@H](n2cnc3c(NCc4cccc(I)c4)ncnc32)[C@H](O)[C@@H]1O` [IB-MECA], the “[35S]GTPgammaS binding, CHO membranes” value in test [2] (agonist) is recorded as “IB-MECA was almost as efficacious as Cl-IB-MECA”.

As for `O=c1[nH]cnc2c1ncn2[C@@H]1O[C@H](CO)[C@@H](O)[C@H]1O` [inosine], the “Emax (% of NECA)” value in test [4] was under 10%.
